Increase data for two molecules are collected here from ChEMBL document CHEMBL1146647, “First total synthesis of structurally unique flavonoids and their strong anti-inflammatory effect” (2004).

In the experiment the test system is Mus musculus. Briefly: Percentage increase of mice ear thickness at 10 ug/kg. Type of experiment: functional.

On to `O=c1cc(-c2ccc(O)cc2)oc2cc3c(c(O)c12)[C@@H]1O[C@H](CO)[C@@H](O)[C@H](O)[C@@H]1O3`, for which the Increase was found to be 30%.

`O=c1cc(-c2ccccc2)oc2cc3c(c(O)c12)[C@@H]1O[C@H](CO)[C@@H](O)[C@H](O)[C@@H]1O3` returned an Increase of 59%.
